Experimental data published in article PMC6201272 (Journal of natural products, 2016).

Tests used:
E.faecium ATCC 29212 = assay: MIC determination; assay type: cell-based, Enterococcus faecium; conditions: duplicate, at least two independent experiments
C. albicans ATCC 28517 = assay: MIC determination, C. albicans ATCC 28517; assay type: cell-based
S. aureus ATCC 43300 = assay: MIC determination; assay type: cell-based, Staphylococcus aureus; conditions: duplicate, at least two independent experiments
E.faecium ATCC 51299 = assay: MIC determination; assay type: cell-based, Enterococcus faecium; conditions: duplicate, at least two independent experiments
E. coli ATCC 25922 = assay: MIC determination; assay type: cell-based, Escherichia coli; conditions: for Minimum inhibitory concentration, E. coli ATCC 25922: MIC, duplicate, at least two independent experiments
P. aeruginosa ATCC 27853 = assay: MIC determination, P. aeruginosa ATCC 27853; assay type: cell-based
S. aureus ATCC 29213 = assay: MIC determination; assay type: cell-based, Staphylococcus aureus; conditions: duplicate, at least two independent experiments
[1] = tested on: monkey kidney cell line (BSC-1); assay: Cytotoxicity against monkey kidney cell line BSC-1; assay type: cell-based
[2] = tested on: bacterial strains and cell lines of Table 3; assay: Cytotoxity and antibacterial activity, all assays; assay type: cell-based
[3] = tested on: human colorectal tumor cell line (HCT-116); assay: Cytotoxicity against human colorectal tumor cell line HCT-116; assay type: cell-based; conditions: maximum tested concentration 50 μg/mL
[4] = tested on: bacteria (broad-spectrum); conditions: cited from earlier work

Row | Compound | Minimum inhibitory concentration, E.faecium ATCC 29212 (E.faecium ATCC 29212) | Minimum inhibitory concentration, C. albicans ATCC 28517 (C. albicans ATCC 28517) | Minimum inhibitory concentration, S. aureus ATCC 43300 (S. aureus ATCC 43300) | Minimum inhibitory concentration, E.faecium ATCC 51299 (E.faecium ATCC 51299) | Minimum inhibitory concentration, E. coli ATCC 25922 (E. coli ATCC 25922) | Minimum inhibitory concentration, P. aeruginosa ATCC 27853 (P. aeruginosa ATCC 27853) | Minimum inhibitory concentration, S. aureus ATCC 29213 (S. aureus ATCC 29213) | Cytotoxicity Bsc-1 (IC50) [1] | Cytotoxity and antibacterial activity in all assays (in words) [2] | Toxicity against HCT-116 (in words) [3] | Inhibition of growth of E. coli (in words) (E. coli ATCC 25922; authors' antimicrobial assays) | Antibacterial activity previously reported (in words) [4]
1 | 1-(3′,4′,6′-Tribromo-1′-methoxyphenoxy)-3,5-dibromo-2-methoxybenzene [Compound 3a] | 50 mg/L | >50 mg/L | >50 mg/L | >50 mg/L | >50 mg/L | >50 mg/L | >50 mg/L | >50 mg/L |  |  |  | 
2 | 1-(4′,5′,6′-Tribromo-1′-methoxyphenoxy)-3,5-dibromo-2-methoxybenzene [Compound 5a] | >50 mg/L | >50 mg/L | >50 mg/L | >50 mg/L | >50 mg/L | >50 mg/L | >50 mg/L | >50 mg/L |  |  |  | 
3 | COc1c(Br)cc(Br)cc1Oc1c(Br)c(OC)c(Br)c(Br)c1OC [Compound 8a, 1-(3′,5′,6′-Tribromo-1′,4′-dimethoxy-1′-phenoxy)-3,5-dibromo-2-methoxybenzene] |  |  |  |  |  |  |  |  | inactive in all assays | nontoxic |  | 
4 | Oc1c(Br)cc(Br)cc1Oc1ccc(Br)cc1Br [Compound 10] |  |  |  |  |  |  |  |  |  |  | did not inhibit the growth | broad-spectrum antibacterial activity
